Measurements as given in US20220030868A1, “FUNGICIDAL HALOMETHYL KETONES AND HYDRATES” (FMC CORPORATION, priority 2018, published 2022).

Tests used:
[1] = test system: Puccinia recondita f. sp. tritici; experiment: Test B: test suspension sprayed on wheat seedlings one day before inoculation with Puccinia recondita f. sp. tritici spores (wheat leaf rust), disease rating; format: in vivo; settings: 100 = 100% disease control, 0 = no control
In short: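 Wheat seedlings were sprayed to run-off with compound suspended in 50/50 acetone/water containing 250 ppm PEG400, then inoculated with P. recondita f. sp. tritici spores the next day. Plants were held 24 h in saturated air at 20 °C, then 6 days in a growth chamber at 20 °C. Disease control was rated 0–100% relative to controls, with some entries run at 50 or 10 ppm.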

Phakopsora pachyrhizi = experiment: Test A: test suspension sprayed on soybean seedlings one day before inoculation with Phakopsora pachyrhizi spores (Asian soybean rust), visual disease rating; format: in vivo; settings: 100 = 100% disease control, 0 = no control; for pest or weed control at 10 ppm / pest or weed control at 50 ppm: Phakopsora pachyrhizi
In short: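 Compound dissolved in acetone (3% of final volume), then suspended at the stated ppm in 50/50 acetone/water with 250 ppm PEG400 surfactant; sprayed to run-off on soybean seedlings, inoculated with P. pachyrhizi spores next day. Held saturated at 22° C for 24 h, then 8 days at 22° C; visual rating as % disease control versus controls.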

C=CCOC(=O)c1cnn(Cc2ccc(O/C=C(\OCC)C(F)(F)F)cc2)c1 [compound 246]
Test B rating (disease control) ([1]; 10 ppm test suspension): 0%
Test A rating (disease control) (Phakopsora pachyrhizi; 10 ppm test suspension): 100%

O=C(OCC1CCC1)c1cnn(Cc2ccc(OCC3(C(F)(F)F)OCCO3)cc2)c1 [compound 249]
Test B rating (disease control) ([1]; 10 ppm test suspension): 0%
Test A rating (disease control) (Phakopsora pachyrhizi; 10 ppm test suspension): 100%

CCO/C(=C\Oc1ccc(Cn2nccc2C(=O)OC)cc1)C(F)(F)F [compound 250]
Test B rating (disease control) ([1]; 10 ppm test suspension): 0%
Test A rating (disease control) (Phakopsora pachyrhizi; 10 ppm test suspension): 0%

CCO/C(=C\Oc1ccc(Cn2ccc(C(=O)OC)n2)cc1)C(F)(F)F [compound 251]
Test B rating (disease control) ([1]; 10 ppm test suspension): 9%
Test A rating (disease control) (Phakopsora pachyrhizi; 10 ppm test suspension): 100%

CCO/C(=C\Oc1ccc(Cn2nccc2C(=O)OC(C)(C)C)cc1)C(F)(F)F [compound 252]
Test B rating (disease control) ([1]; 10 ppm test suspension): 0%
Test A rating (disease control) (Phakopsora pachyrhizi; 10 ppm test suspension): 0%

CCO/C(=C\Oc1ccc(Cn2ccc(C(=O)OC(C)(C)C)n2)cc1)C(F)(F)F [compound 253]
Test B rating (disease control) ([1]; 10 ppm test suspension): 0%
Test A rating (disease control) (Phakopsora pachyrhizi; 10 ppm test suspension): 0%

CCO/C(=C\Oc1ccc(Cc2ncc(C(=O)NCC3CC3)s2)cc1)C(F)(F)F [compound 254]
Test B rating (disease control) ([1]; 10 ppm test suspension): 0%
Test A rating (disease control) (Phakopsora pachyrhizi; 10 ppm test suspension): 73%

CCO/C(=C\Oc1ccc(Cc2ncc(C(=O)NCC(F)F)o2)cc1)C(F)(F)F [compound 255]
Test B rating (disease control) ([1]; 10 ppm test suspension): 0%
Test A rating (disease control) (Phakopsora pachyrhizi; 10 ppm test suspension): 89%

CCO/C(=C\Oc1ccc(Cc2ncc(C(=O)NCC3CC3)o2)cc1)C(F)(F)F [compound 258]
Test B rating (disease control) ([1]; 10 ppm test suspension): 0%
Test A rating (disease control) (Phakopsora pachyrhizi; 10 ppm test suspension): 96%

CCOC(=O)c1cnn(Cc2ccc(OCC(O)(O)C(F)(F)F)c(F)c2)c1 [compound 264]
pest or weed control at 10 ppm ([1]; 10 ppm test suspension): 80%
pest or weed control at 10 ppm (Phakopsora pachyrhizi; 10 ppm test suspension): 99%

CCOC(=O)c1cnn(C(C)c2ccc(O/C=C(\OCC)C(F)(F)F)cc2)c1 (stereo not drawn) [compound 267]
Test B rating (disease control) ([1]; 10 ppm test suspension): 0%
Test A rating (disease control) (Phakopsora pachyrhizi; 10 ppm test suspension): 94%

CCOC(=O)C1CCN(Cc2ccc(O/C=C(\OCC)C(F)(F)F)cc2)CC1 [compound 268]
Test B rating (disease control) ([1]; 10 ppm test suspension): 0%
Test A rating (disease control) (Phakopsora pachyrhizi; 10 ppm test suspension): 99%

CCOC(=O)C1CCCN(Cc2ccc(O/C=C(\OCC)C(F)(F)F)cc2)C1 (stereo not drawn) [compound 269]
Test B rating (disease control) ([1]; 10 ppm test suspension): 0%
Test A rating (disease control) (Phakopsora pachyrhizi; 10 ppm test suspension): 100%

O=C(OCC1CCCCC1)c1cnn(Cc2ccc(OCC3(C(F)(F)F)OCCO3)cc2)c1 [compound 272]
Test B rating (disease control) ([1]; 10 ppm test suspension): 0%
Test A rating (disease control) (Phakopsora pachyrhizi; 10 ppm test suspension): 100%

CCOC(=O)c1cnn(Cc2ccc(OCC3(C(F)(F)F)OCCO3)s2)c1 [compound 273]
pest or weed control at 50 ppm ([1]; 50 ppm test suspension): 0%
pest or weed control at 50 ppm (Phakopsora pachyrhizi; 50 ppm test suspension): 100%

CCOC(=O)C1=NOC(c2ccc(O/C=C(\OCC)C(F)(F)F)cc2)C1 (stereo not drawn) [compound 278]
Test B rating (disease control) ([1]; 50 ppm test suspension): 0%
Test A rating (disease control) (Phakopsora pachyrhizi; 50 ppm test suspension): 94%

CCO/C(=C\Oc1ccc([N+](=O)[O-])cc1)C(F)(F)F [compound 279]
Test B rating (disease control) ([1]; 50 ppm test suspension): 0%
Test A rating (disease control) (Phakopsora pachyrhizi; 50 ppm test suspension): 0%

CSc1nccc(Cc2ccc(OCC3(C(F)(F)F)OCCO3)cc2)n1 [compound 281]
Test B rating (disease control) ([1]; 50 ppm test suspension): 98%
Test A rating (disease control) (Phakopsora pachyrhizi; 50 ppm test suspension): 95%

CS(=O)(=O)c1nccc(Cc2ccc(OCC3(C(F)(F)F)OCCO3)cc2)n1 [compound 282]
Test B rating (disease control) ([1]; 50 ppm test suspension): 0%
Test A rating (disease control) (Phakopsora pachyrhizi; 50 ppm test suspension): 0%

O=C(OCC1CCCC1)c1cnn(Cc2ccc(OCC3(C(F)(F)F)OCCO3)cc2)c1 [compound 284]
Test B rating (disease control) ([1]; 10 ppm test suspension): 0%
Test A rating (disease control) (Phakopsora pachyrhizi; 10 ppm test suspension): 100%

CC=CCOC(=O)c1cnn(Cc2ccc(OCC3(C(F)(F)F)OCCO3)cc2)c1 [compound 285]
Test B rating (disease control) ([1]; 10 ppm test suspension): 0%
Test A rating (disease control) (Phakopsora pachyrhizi; 10 ppm test suspension): 100%

C=CCOC(=O)c1ccn(Cc2ccc(O/C=C(\OCC)C(F)(F)F)cc2)n1 [compound 291]
Test B rating (disease control) ([1]; 10 ppm test suspension): 0%
Test A rating (disease control) (Phakopsora pachyrhizi; 10 ppm test suspension): 100%

CCCOC(=O)c1ccn(Cc2ccc(O/C=C(\OCC)C(F)(F)F)cc2)n1 [compound 292]
Test B rating (disease control) ([1]; 10 ppm test suspension): 0%
Test A rating (disease control) (Phakopsora pachyrhizi; 10 ppm test suspension): 100%

CC#CCOC(=O)c1ccn(Cc2ccc(O/C=C(\OCC)C(F)(F)F)cc2)n1 [compound 293]
Test B rating (disease control) ([1]; 10 ppm test suspension): 0%
Test A rating (disease control) (Phakopsora pachyrhizi; 10 ppm test suspension): 100%

CCOC(=O)c1cnn(CCCc2ccc(O/C=C(\OCC)C(F)(F)F)cc2)c1 [compound 294]
Test B rating (disease control) ([1]; 10 ppm test suspension): 0%
Test A rating (disease control) (Phakopsora pachyrhizi; 10 ppm test suspension): 100%

CCOC(=O)c1cnn(CCCc2ccc(OCC3(C(F)(F)F)OCCO3)cc2)c1 [compound 296]
Test B rating (disease control) ([1]; 10 ppm test suspension): 0%
Test A rating (disease control) (Phakopsora pachyrhizi; 10 ppm test suspension): 0%

CCOC(=O)c1cnn(Cc2ccc(O/C=C(\OCC(F)(F)F)C(F)(F)F)cc2)c1 [compound 298]
Test B rating (disease control) ([1]; 10 ppm test suspension): 0%
Test A rating (disease control) (Phakopsora pachyrhizi; 10 ppm test suspension): 0%

CCO/C(=C\Oc1ccc(Cn2ccc(C(=O)O)n2)cc1)C(F)(F)F [compound 299]
Test B rating (disease control) ([1]; 10 ppm test suspension): 0%
Test A rating (disease control) (Phakopsora pachyrhizi; 10 ppm test suspension): 100%

CC#CCOC(=O)c1cnn(Cc2cccc(O/C=C(\OCC)C(F)(F)F)c2)c1 [compound 300]
Test B rating (disease control) ([1]; 10 ppm test suspension): 0%
Test A rating (disease control) (Phakopsora pachyrhizi; 10 ppm test suspension): 100%

CCOC(=O)c1cnn(Cc2cccc(O/C=C(\OCC)C(F)(F)F)c2F)c1 [compound 301]
pest or weed control at 50 ppm ([1]; 50 ppm test suspension): 0%
pest or weed control at 50 ppm (Phakopsora pachyrhizi; 50 ppm test suspension): 100%

CCOC(=O)c1cnn(Cc2cc(O/C=C(\OCC)C(F)(F)F)ccc2F)c1 [compound 302]
pest or weed control at 50 ppm ([1]; 50 ppm test suspension): 0%
pest or weed control at 50 ppm (Phakopsora pachyrhizi; 50 ppm test suspension): 99%

CCOC(=O)c1cnn(Cc2cccc(O/C=C(\OCC)C(F)(F)F)c2C)c1 [compound 303]
pest or weed control at 50 ppm ([1]; 50 ppm test suspension): 0%
pest or weed control at 50 ppm (Phakopsora pachyrhizi; 50 ppm test suspension): 0%

CCOC(=O)c1cnn(C(C)c2cccc(O/C=C(\OCC)C(F)(F)F)c2)c1 (stereo not drawn) [compound 304]
Test B rating (disease control) ([1]; 50 ppm test suspension): 0%
Test A rating (disease control) (Phakopsora pachyrhizi; 50 ppm test suspension): 96%

O=Cc1cccc(OCC(O)(O)C(F)(F)F)c1 [compound 305]
pest or weed control at 10 ppm ([1]; 10 ppm test suspension): 0%
pest or weed control at 10 ppm (Phakopsora pachyrhizi; 10 ppm test suspension): 70%

CCO/C(=C\Oc1ccc(Cc2ccnc(S(C)(=O)=O)n2)cc1)C(F)(F)F [compound 307]
Test B rating (disease control) ([1]; 50 ppm test suspension): 0%
Test A rating (disease control) (Phakopsora pachyrhizi; 50 ppm test suspension): 0%

CCO/C(=C\Oc1ccc(Cc2ccnc(SC)n2)cc1)C(F)(F)F [compound 308]
Test B rating (disease control) ([1]; 50 ppm test suspension): 0%
Test A rating (disease control) (Phakopsora pachyrhizi; 50 ppm test suspension): 25%

CCO/C(=C\Oc1ccc(CN2CCC(C(=O)OC)CC2)cc1)C(F)(F)F [compound 309]
Test B rating (disease control) ([1]; 10 ppm test suspension): 0%
Test A rating (disease control) (Phakopsora pachyrhizi; 10 ppm test suspension): 100%

CCO/C(=C\Oc1ccc(CN2CCC(C#N)CC2)cc1)C(F)(F)F [compound 311]
Test B rating (disease control) ([1]; 10 ppm test suspension): 0%
Test A rating (disease control) (Phakopsora pachyrhizi; 10 ppm test suspension): 0%

CCO/C(=C\Oc1ccc(CN2CCC(OC)CC2)cc1)C(F)(F)F [compound 312]
Test B rating (disease control) ([1]; 10 ppm test suspension): 0%
Test A rating (disease control) (Phakopsora pachyrhizi; 10 ppm test suspension): 0%

CCO/C(=C\Oc1ccc(Cc2ccnc(OCC[Si](C)(C)C)n2)cc1)C(F)(F)F [compound 313]
Test B rating (disease control) ([1]; 50 ppm test suspension): 0%
Test A rating (disease control) (Phakopsora pachyrhizi; 50 ppm test suspension): 0%

C[Si](C)(C)CCOc1nccc(Cc2ccc(OCC3(C(F)(F)F)OCCO3)cc2)n1 [compound 314]
Test B rating (disease control) ([1]; 50 ppm test suspension): 0%
Test A rating (disease control) (Phakopsora pachyrhizi; 50 ppm test suspension): 0%

CCOC(=O)c1cnn(-c2ccc(O/C=C(\OCC)C(F)(F)F)cc2)c1 [compound 316]
Test B rating (disease control) ([1]; 50 ppm test suspension): 9%
Test A rating (disease control) (Phakopsora pachyrhizi; 50 ppm test suspension): 100%

O=C(OC1CCC1)c1cnn(Cc2ccc(OCC3(C(F)(F)F)OCCO3)cc2)c1 [compound 318]
Test B rating (disease control) ([1]; 10 ppm test suspension): 0%
Test A rating (disease control) (Phakopsora pachyrhizi; 10 ppm test suspension): 100%

CCOC(=O)c1cnn(Cc2ccc(OC(F)(F)C3(C(F)(F)F)OCCO3)cc2)c1 [compound 319]
Test B rating (disease control) ([1]; 50 ppm test suspension): 41%
Test A rating (disease control) (Phakopsora pachyrhizi; 50 ppm test suspension): 100%

CCO/C(=C\Oc1cccc(Cn2cc(C(=O)O)cn2)c1)C(F)(F)F [compound 323]
Test B rating (disease control) ([1]; 50 ppm test suspension): 0%
Test A rating (disease control) (Phakopsora pachyrhizi; 50 ppm test suspension): 100%

CCCO/C(=C\Oc1cccc(Cn2cc(C(=O)OCC)cn2)c1)C(F)(F)F [compound 324]
Test B rating (disease control) ([1]; 10 ppm test suspension): 0%
Test A rating (disease control) (Phakopsora pachyrhizi; 10 ppm test suspension): 0%

C#CCOC(=O)c1ccn(Cc2ccc(O/C=C(\OCC)C(F)(F)F)cc2)n1 [compound 325]
Test B rating (disease control) ([1]; 10 ppm test suspension): 0%
Test A rating (disease control) (Phakopsora pachyrhizi; 10 ppm test suspension): 100%

CCC#CCOC(=O)c1ccn(Cc2ccc(O/C=C(\OCC)C(F)(F)F)cc2)n1 [compound 326]
Test B rating (disease control) ([1]; 10 ppm test suspension): 0%
Test A rating (disease control) (Phakopsora pachyrhizi; 10 ppm test suspension): 100%
